# Results from EPA's ToxValDB 9.5.
# Experiments:
# Rattus norvegicus [1] = conditions: M/F
# Rattus norvegicus [2] = conditions: subchronic, oral, diet, Fischer 344, Hematology: Hct decrease, Hgb decrease, RBC decrease + Blood Chemistry: CPK increase + Absolute Organ Weight: Liver decrease + Relative …
# Tatera sp. = conditions: intermediate; duration: 3 months; Inhalation; M/F; Mongolian; neurological
# Homo sapiens = conditions: clinical; duration: 3.5 hours; inhalation; M; neurological
# Mus musculus [3] = conditions: repeat dose other; oral
# Oryctolagus sp. [4] = test system: Oryctolagus sp.
# Oryctolagus sp. [5] = conditions: for NOAEL: New Zealand
# Oryctolagus sp. [6] = conditions: subchronic; duration: 10 weeks; oral; drinking water; M; Dutch-belted; Endocrine
# Cavia porcellus = conditions: subchronic; duration: 90 days; oral; diet; M/F; Guinea Pig; lymphatic
# Monkey = conditions: developmental; duration: 16 months; oral; diet; M/F; Rhesus; developmental
# Mus musculus [7] = conditions: acute, duration: 1 days, oral
# Rattus norvegicus [8] = conditions: repeat dose other; oral
# Phasianus colchicus = conditions: oral
# Rattus norvegicus [9] = conditions: oral, gavage, Sprague-Dawley; for NOAEL: reproduction developmental
# Oryctolagus sp. [10] = conditions: duration: 7 days, oral, gavage, New Zealand
# Oryctolagus sp. [11] = experiment: LD0; higher = less toxic; conditions: acute; dermal; occlusive; New Zealand
# Cricetulus sp. = conditions: subchronic; duration: 13 weeks; inhalation; M/F; Hamster; increased hemolysis, abnormal rbc morphology, and increased spleen weight
# Mus musculus [12] = conditions: subchronic, inhalation
# Canidae [13] = conditions: chronic, duration: 1 years, oral, diet, Dog Other, Cardiac toxicity and moderate-to-severe dilation of the right atrium
# Sus scrofa = conditions: short-term; duration: 19 days; oral; diet; F; Swedish Landrace/Large Yorkshire cross; reproductive
# Rattus norvegicus [14] = conditions: chronic; duration: 2 years; oral; diet; Whole body: Decreased weight gain
# Canidae [15] = conditions: chronic; duration: 52 weeks; oral; capsule; M/F; Beagle; hepatic
# Mus musculus [16] = conditions: chronic, oral, diet, B6C3F1
# Oryctolagus sp. [17] = test system: Oryctolagus sp.; remark: listed apart in the source
# [18] = subchronic, duration: 13 weeks, inhalation, M, testicular effects
# [19] = subchronic, duration: 13 weeks, inhalation, increased hemolysis, abnormal rbc morphology, and increased spleen weight
# [20] = duration: 12 weeks, Increased hemolysis, increased spleen weight, and impaired compensatory erythropoiesis
# [21] = duration: 13 weeks, M/F, increased hemolysis, abnormal rbc morphology, and increased spleen weight
# [22] = chronic, duration: 2 years, oral, diet, reduced body weight gain
# [23] = developmental, oral, F, reduced stool quantity, food consumption and body weight gain hyperirritability (maternal effects)
compound,measurement,setting,value
"CC(Cl)(Cl)Cl [1,1,1-Trichloroethane]",NOAEL,"Rattus norvegicus [1]; chronic, duration: 2 years, inhalation, liver histopathologic changes",8190 mg/m3
same,NOEL,Rattus norvegicus [2]; F,310 mg/kg-day
same,NOEL,Rattus norvegicus [2]; M/F,480 mg/kg-day
same,NOAEL,Tatera sp.,70 ppm
same,LOAEL,Homo sapiens,955 mg/m3
same,NOAEL,Mus musculus [3],1000 mg/kg-day
"ClCC(Br)CBr (stereo not given) [1,2-Dibromo-3-chloropropane]",LOAEL,Oryctolagus sp. [4]; [18],9.4 mg/m3
same,NOAEL,Oryctolagus sp. [4]; [18],0.94 mg/m3
same,NOAEL,"Oryctolagus sp. [5]; chronic, duration: 14 weeks, inhalation, M, reproductive",0.967 mg/m3
same,LOAEL,"Oryctolagus sp. [5]; subchronic, duration: 10 weeks, oral, drinking water, M, Dutch belted, reproductive",1.88 mg/kg-day
same,NOAEL,Oryctolagus sp. [6],0.7 mg/kg-day
"Clc1cc2c(cc1Cl)Oc1cc(Cl)c(Cl)cc1O2 [2,3,7,8-Tetrachlorodibenzo-p-dioxin]",NOAEL,Cavia porcellus,7e-07 mg/kg-day
same,LOAEL,Monkey,1.2e-07 mg/kg-day
same,NOAEL,"Mus musculus [7]; gavage, F, B6C3F1, immunological",5e-06 mg/kg-day
same,LOAEL,Rattus norvegicus [8],1e-05 mg/kg-day
same,NOAEL,Rattus norvegicus [8],1e-06 mg/kg-day
same,LOAEL,Phasianus colchicus,0.00014 mg/kg-day
same,NOAEL,Phasianus colchicus,1.4e-05 mg/kg-day
Nc1ccc([N+](=O)[O-])cc1 [4-Nitrobenzenamine],LD50,Rattus norvegicus [9]; acute,1400 mg/kg
same,NOAEL,Rattus norvegicus [9]; duration: 90 days,< 3 mg/kg-day
same,NOAEL,"Rattus norvegicus [9]; duration: 167 days, generation: F0",1.5 mg/kg-day
same,NOAEL,"Rattus norvegicus [9]; duration: 167 days, generation: F1",9000 mg/kg-day
same,NOAEL,Oryctolagus sp. [10]; developmental,125 mg/kg-day
same,NOAEL,"Oryctolagus sp. [10]; reproduction developmental, generation: F1",125 mg/kg-day
same,LD0,Oryctolagus sp. [11],> 7940 mg/kg
[AsH3] [Arsine],LOAEL,Rattus norvegicus [1]; [19],1.6 mg/m3
same,NOAEL,Rattus norvegicus [1]; [19],0.08 mg/m3
same,LOAEL,Cricetulus sp.,1.6 mg/m3
same,NOAEL,Cricetulus sp.,0.08 mg/m3
same,LOAEL,Mus musculus [12]; [20],1.6 mg/m3
same,NOAEL,Mus musculus [12]; [20],0.08 mg/m3
same,LOAEL,Mus musculus [12]; [21],1.6 mg/m3
same,NOAEL,Mus musculus [12]; [21],0.08 mg/m3
CCNc1nc(Cl)nc(NC(C)C)n1 [Atrazine],LOAEL,Rattus norvegicus [1]; [22],25 mg/kg-day
same,NOAEL,Rattus norvegicus [1]; [22],3.5 mg/kg-day
same,LOAEL,Canidae [13]; F,33.8 mg/kg-day
same,NOAEL,Canidae [13]; M/F,4.97 mg/kg-day
same,LOAEL,Canidae [13]; M,33.6 mg/kg-day
same,LOAEL,Sus scrofa,1 mg/kg-day
same,NOAEL,"Oryctolagus sp. [5]; reproduction developmental, duration: 12 days, oral, gavage, F, body weight",1 mg/kg-day
same,NOEL,Rattus norvegicus [14],3.5 mg/kg-day
COC(=O)c1cc(Oc2ccc(Cl)cc2Cl)ccc1[N+](=O)[O-] [Bifenox],NOAEL,Canidae [15],145 mg/kg-day
same,LOAEL,"Mus musculus [16]; duration: 2 years, M/F, Urinary",7 mg/kg-day
Cc1ccc([N+](=O)[O-])cc1N [C.I. Azoic Diazo Component 12],LOAEL,"Mus musculus [16]; duration: 78 weeks, F",207 mg/kg-day
S=C=S [Carbon disulfide],NOEL,"Oryctolagus sp. [4]; developmental, oral, M/F, fetal toxicity/ malformations",11 mg/kg-day
same,LOAEL,"Mus musculus [7]; M, DD, hepatic",3 mg/kg-day
same,NOEL,"Oryctolagus sp. [17]; developmental, inhalation, intermittent, Fetus: Toxicity",11 mg/kg-day
CCOC(=O)C(O)(c1ccc(Cl)cc1)c1ccc(Cl)cc1 [Chlorobenzilate],LEL,Oryctolagus sp. [4]; [23],20 mg/kg-day
same,NOEL,Oryctolagus sp. [4]; [23],5 mg/kg-day
same,NOEL,"Oryctolagus sp. [17]; short-term, duration: 13 days, oral, gavage, Gastrointestinal system: Decreased stool quantity + Nervous system: Hyperirritability + Whole body: Decreased food consumption + Whole body…",5 mg/kg-day
